Source: patent US8278072B1, “Method for synthesis of sialylated products using reversible sialylation” (Health Research, Inc., priority 2007, dated 2012)
Marks after values point to notes of the source that are not given here.

Legend:
[1] = molecular target: T1, ST3Gal-II (Rattus norvegicus, UniProt Q11205); test: Reverse sialylation: transfer of [9-3H]NeuAc from sialylated donor to nucleotide phosphates (WGA-agarose); assay type: biochemical; conditions: for Incorporation of [9-3H]NeuAc expressed as percent of the CPM incorporated into 5′-CMP: nucleotide phosphate 1 mM as acceptor, donor [1]
T1 construct: purchased Calbiochem
T1 sequence (Q11205 1-350): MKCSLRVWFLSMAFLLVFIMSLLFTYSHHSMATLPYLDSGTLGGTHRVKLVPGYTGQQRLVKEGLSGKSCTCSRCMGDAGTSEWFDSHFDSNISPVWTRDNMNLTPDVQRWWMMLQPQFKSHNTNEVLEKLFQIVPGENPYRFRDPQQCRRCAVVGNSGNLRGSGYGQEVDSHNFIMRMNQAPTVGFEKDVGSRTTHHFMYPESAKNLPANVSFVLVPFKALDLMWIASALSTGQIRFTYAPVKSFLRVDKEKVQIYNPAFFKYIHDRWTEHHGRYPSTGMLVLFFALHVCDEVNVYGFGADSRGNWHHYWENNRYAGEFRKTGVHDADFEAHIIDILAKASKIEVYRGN
Procedure: FIG. 1. Nucleotide phosphates as acceptors of radioactivity from [9-^3H]NeuAcα2,3Galβ,13 (GlcNAcβ1,6)GalNAcα-O—Al (Al=Allyl) [[9-^3H] [1]] in the presence of ST3Gal-II (scheme-I). Reaction mixtures (RM) with the following composition were incubated at 37° C. for 21 hours in 100 mM NaCa Codylate buffer, pH6.0: i) RM containing 150 μM (0.4 μCi) [[9-^3H] [1]] (donor) along with 0.8 mU ST3Gal-II but no 5″-CMP; and, ii) RM containing [[9-^3H] [1]] and 1.0 mM 5′-CMP, along with ST3Gal-II. Products formed were fractionated on a WGA-agarose column. […] The feasibility of the reverse reaction is well established in literature. Schematic symbols: ♦:sialic acid, ●:Gal, □:GalNAc, ▪:GlcNAc.
All enzymatic sialylation reactions were typically carried out in 100 mM NaCa Codylate buffer pH6.0 in the presence of enzyme, synthetic acceptor (at 7.5 mM or as indicated in each experiment) and 0.2 μCi CMP-[9-^3H]NeuAc (NEN-Dupont, 29 mCi/μmol). The concentration of total CMP-NeuAc was adjusted in individual reactions by supplementing with additional cold CMP-NeuAc. Reaction volume was 20 μl. Products formed were separated using four different chromatography procedures (below). In all cases, the radioactive content of isolated products was determined by using 3a70 scintillation cocktail (Research Products International, Mount Prospect, Ill.), and a Beckman LS6500 scintillation counter.
a) Biogel P2 chromatography: A Biogel P2 column (Fine Mesh; 1.0×116.0 cm) was used with 0.1 M pyridine acetate (pH5.4) as the eluent at room temperature. […] Fractions of 1.0 ml were collected. The bound material was then eluted with 0.5M GlcNAc or 0.2M Gal in the same buffer. […] Calculation of equilibrium constant, Keq: Equilibrium constant was calculated for selected reversible bimolecular reactions that are denoted by:
Cloned and purified rat sialyltransferase α2,3(O)ST (ST3Gal-II) is used in many experiments presented in this manuscript. […] In order to determine if the sialylation reaction is reversible (FIG. 1), [9-^3H]NeuAcα2,3Galβ,13(GlcNAcβ1,6)GalNAcα-O—Al (Al=Allyl) [9-^3H[1]] was prepared using ST3Gal-II in the presence of CMP-[9-^3H]NeuAc and the trisaccharide acceptor Galβ1,3(GlcNAcβ1,6)GalNAcα-O—Al, and the radiolabeled product was isolated using Biogel P2 chromatography. […] Two different reaction mixtures were then prepared with: i) [9-^3H[1]] and ST3Gal-II but without 5″-CMP; and ii) [9-^3H[1]] and 5″-CMP along with ST3Gal-II.

[2] = molecular target: T1, ST3Gal-II; test: Serial transfer of sialic acid from donor via 5′-CMP to acceptors (scheme-II); assay type: biochemical; conditions: for Incorporation of [9-3H]NeuAc from donor [3], percent of the CPM incorporated into [5]: 150 μM donor [3]
Procedure: FIG. 3. Serial transfer of sialic acid using scheme-II was followed at increasing concentrations of acceptor D-Fucβ1,3GalNAcα-O-Bn. The donor used was either: i) 0.15 mM [9-^3H]CMP-NeuAc; or, ii) 0.15 mM [9-^3H]NeuAcα2,3Galβ1,3(4-FGlcNAcβ1,6)GalNAcα-O-Bn [9-^3H [2]] in the presence of 2.0 mM 5′-CMP, or iii) [9-^3H]NeuAcα2,3Galβ1,3(6-O-SulfoGlcNAcβ1,6)GalNAcα-O—Al [[9-^3H] [4]] in the presence of 2.0 mM 5′-CMP. In runs where [9-^3H [2]] was donor since both and [2] bind C18 cartridges, control runs were performed in the absence of D-Fucβ1,3GalNAcα-O-Bn to estimate the amount of [9-^3H]CMP-NeuAc formed under the experimental conditions. 80-85% of the radioactivity was transferred to CMP-NeuAc in these runs. The amount of CMP-NeuAc remaining in runs with was then subtracted from CMP-NeuAc radioactivity in the control run to determine the amount of sialylated. To complement this run, studies were also performed with [[9-^3H] […] In these runs, the amount of sialylated was determined by measuring radioactivity retained in the C18-cartridge. a. Equilibrium constant was 5.55 when CMP-[9-^3H]NeuAc was donor. b. ˜10-fold lower acceptor concentration was required for similar extents of reaction when CMP-[9-^3H]NeuAc was donor, compared to core-2 based donors and [4].
We tested the possibility that CMP-NeuAc formed above may be available for transfer to other acceptors using ST3Gal-II (scheme-II, FIG. 3). For this, three radiolabeled donors were prepared using methods described above: two were based on the mucin Core-2 structure ([[9-^3H] [1]] and [9-^3H]NeuAcα2,3Galβ1,3(6-O-SulfoGlcNAcβ1,6)GalNAcα-O—Al [[9-^3H] [4]]) while the third was based on the Globo glycolipid ([9-^3H] [3]). The transfer of [9-^3H]NeuAc from these sialylated donors to various T-hapten (Galβ1,3GalNAcα) and mucin core2-based glycoside acceptors in the presence of 5′-CMP and ST3Gal-II was assessed (Table III). All three […] of ST3Gal-II ([1], [3] and [4]) allowed formation of CMP-[9-^3H]NeuAc, and a diverse array of products.
The transfer of [9-^3H]NeuAc from [[9-^3H][1]] to D-Fucβ1,3GalNAcα-O-Bn in the presence of 5′-CMP and ST3Gal-II increased linearly in the first two hours and it reached saturation at 4 hours (FIG. 12), and thus the data in Table III (4 hours time point) represent equilibrium conditions. […] Further, diverse sialylated products can be formed using the same synthetic sialylated donor.
In order to compare the efficiency of individual reactions of scheme II, independent runs were performed where either 0.15 mM [9-^3H]CMP-NeuAc, 0.15 mM [9-^3H] [2] or 0.15 mM [9-^3H] [4] was the donor, and [5] was the acceptor (FIG. 3). 2 mM 5′-CMP was added in runs with core-2 donors and [4], and thus reverse sialylation of these molecules was feasible. Keq for transfer of sialic acid from CMP-NeuAc to [5] was 5.55 (FIG. 3a). […] (˜6 mM) or [9-^3H[4]] (˜6 mM). Thus, while the two-step mechanism results in lower conversion than CMP-NeuAc alone, the transfer of NeuAc still takes place at an appreciable rate.

[3] = acceptor 2.5 mM, 1 mM 5′-CMP, 4 hours
[4] = acceptor 2.5 mM, 150 μM donor [4], 1 mM 5′-CMP, 4 hours
[5] = acceptor 2.5 mM, 150 μM donor [1], 1 mM 5′-CMP, 4 hours

Compound | Incorporation of [9-3H]NeuAc expressed as percent of the CPM incorporated into 5′-CMP [1] | Incorporation of [9-3H]NeuAc from donor [3], percent of the CPM incorporated into [5] [2, 3] | Incorporation of [9-3H]NeuAc from donor [4], percent of the CPM incorporated into [5] [2, 4] | Incorporation of [9-3H]NeuAc from donor [1], percent of the CPM incorporated into [5] [2, 5] | also measured
Nc1ncnc2c1ncn2[C@@H]1O[C@H](COP(=O)(O)O)[C@@H](O)[C@H]1O [5′-AMP] | 3.0% |  |  |  | 
Cc1cn([C@H]2C[C@H](O)[C@@H](COP(=O)(O)O)O2)c(=O)[nH]c1=O [5′-TMP] | 1.1% |  |  |  | 
CC(=O)N[C@H]1[C@H](OC[C@H]2O[C@H](OCc3ccccc3)[C@H](NC(C)=O)[C@@H](O[C@@H]3O[C@H](C)[C@H](O)[C@H](O)[C@H]3O)[C@H]2O)O[C@H](CO)[C@@H](O)[C@@H]1O [[6], D-Fucβ1,3(GlcNAcβ1,6)GalNAcα-O-Bn] |  | 106.5% | 96.9% |  | 
CC(=O)N[C@H]1[C@@H](OCc2ccccc2)O[C@H](CO)[C@H](O)[C@@H]1O[C@@H]1O[C@H](CO)[C@H](F)[C@H](O)[C@H]1O [[7], 4-FGalβ1,3GalNAcα-O-Bn] |  | 4.1% | 33.3% | 60.8% | 
COC[C@H]1O[C@H](OCc2ccccc2)[C@H](NC(C)=O)[C@@H](O[C@@H]2O[C@H](CO)[C@H](O)[C@H](O)[C@H]2O)[C@H]1O [[8], Galβ1,3(6-O-Me)GalNAcα-O-Bn] |  | 3.3% | 21.5% | 43.0% | 
CO[C@H]1[C@@H](O)[C@@H](CO)O[C@@H](O[C@H]2[C@H](O)[C@@H](NC(C)=O)[C@H](OC[C@H]3O[C@H](OCc4ccccc4)[C@H](NC(C)=O)[C@@H](O[C@@H]4O[C@H](CO)[C@H](O)[C@H](O)[C@H]4O)[C@H]3O)O[C@@H]2CO)[C@@H]1O [[9], 3-O-MeGalβ1,4GlcNAcβ1,6(Galβ1,3)GalNAcα-O-Bn] |  |  | 10.0% | 22.4% | 
[9-^3H]NeuAcα2,3Galβ,13 (GlcNAcβ1,6)GalNAcα-O—Al [[1]] |  |  |  |  | transfer of radioactive [9-3H]NeuAc from donor to 5′-CMP ([1]; 150 μM donor, 1.0 mM 5′-CMP): > 90%

The next lines start with results.

Incorporation of [9-3H]NeuAc expressed as percent of the CPM incorporated into 5′-CMP [1] | Incorporation of [9-3H]NeuAc from donor [3], percent of the CPM incorporated into [5] [2, 3] | Incorporation of [9-3H]NeuAc from donor [4], percent of the CPM incorporated into [5] [2, 4] | Incorporation of [9-3H]NeuAc from donor [1], percent of the CPM incorporated into [5] [2, 5] | Compound | also measured
2.4% |  |  |  | Nc1ccn([C@@H]2O[C@H](CO)[C@@H](OP(=O)(O)O)[C@H]2O)c(=O)n1 [3′-CMP] | 
1.6% |  |  |  | Nc1ccn([C@@H]2O[C@H](COP(=O)(O)OP(=O)(O)OP(=O)(O)O)[C@@H](O)[C@H]2O)c(=O)n1 [5′-CTP, cytidine triphosphate] | 
2.3% |  |  |  | Nc1nc2c(ncn2[C@@H]2O[C@H](COP(=O)(O)O)[C@@H](O)[C@H]2O)c(=O)[nH]1 [5′-GMP] | 
 | 0.2% | 2.7% | 8.9% | CO[C@@H]1[C@H](O)[C@@H](O)[C@H](O[C@H]2[C@@H](O)[C@@H](CO)O[C@H](OCc3ccccc3)[C@@H]2NC(C)=O)O[C@@H]1CO [[11], 4-O-MeGalβ1,3GalNAcα-O-Bn] | 
 | 0.5% | 1.9% |  | CC(=O)N[C@H]1[C@H](OCc2ccccc2)O[C@H](CO)[C@@H](O[C@@H]2O[C@H](CO)[C@H](O)[C@H](O)[C@H]2O)[C@@H]1O [[12], Galβ1,4GlcNAcβ-O-Bn] | 
 |  | 0% | 1.3% | CO[C@@H]1[C@H](O)[C@@H](O)[C@H](O[C@H]2[C@@H](O)[C@@H](CO[C@@H]3O[C@H](CO)[C@@H](O[C@@H]4O[C@H](CO)[C@H](O)[C@H](O)[C@H]4O)[C@H](O)[C@H]3NC(C)=O)O[C@H](OCc3ccccc3)[C@@H]2NC(C)=O)O[C@@H]1CO [[13], Galβ1,4GlcNAcβ1,6(4-O-MeGalβ1,3)GalNAcα-O-Bn] | 
 | 100.0% | 100.0% | 100.0% | D-Fucβ1,3GalNAcα-O-Bn [[5]] | Incorporation of [9-3H]NeuAc from donor [1] [2, 5]: (34569 CPM); Incorporation of [9-3H]NeuAc from donor [3] ([2]; acceptor 2.5 mM, 150 μM donor [3] of lower specific radioactivity, 1 mM 5′-CMP, 4 hours): (6224 CPM)***; Incorporation of [9-3H]NeuAc from donor [4] [2, 4]: (97675 CPM); Keq for transfer of sialic acid from CMP-NeuAc to [5] ([2]; donor 0.15 mM CMP-[9-3H]NeuAc): 5.55
